In brackets after ≈: the same amount, converted by molar mass. Read-outs that look alike come from different tables or passages of the source. One block for each molecule: values may come before it.
What was measured:
[1] = molecular target: T1, recombinant human TopI (HTopI) (Homo sapiens, UniProt P11387); assay: Gel based plasmid DNA relaxation assay with recombinant TopI (in vitro); format: biochemical; details: recombinant human TopI; for IC50: plasmid DNA relaxation
T1 sequence (P11387 1-765): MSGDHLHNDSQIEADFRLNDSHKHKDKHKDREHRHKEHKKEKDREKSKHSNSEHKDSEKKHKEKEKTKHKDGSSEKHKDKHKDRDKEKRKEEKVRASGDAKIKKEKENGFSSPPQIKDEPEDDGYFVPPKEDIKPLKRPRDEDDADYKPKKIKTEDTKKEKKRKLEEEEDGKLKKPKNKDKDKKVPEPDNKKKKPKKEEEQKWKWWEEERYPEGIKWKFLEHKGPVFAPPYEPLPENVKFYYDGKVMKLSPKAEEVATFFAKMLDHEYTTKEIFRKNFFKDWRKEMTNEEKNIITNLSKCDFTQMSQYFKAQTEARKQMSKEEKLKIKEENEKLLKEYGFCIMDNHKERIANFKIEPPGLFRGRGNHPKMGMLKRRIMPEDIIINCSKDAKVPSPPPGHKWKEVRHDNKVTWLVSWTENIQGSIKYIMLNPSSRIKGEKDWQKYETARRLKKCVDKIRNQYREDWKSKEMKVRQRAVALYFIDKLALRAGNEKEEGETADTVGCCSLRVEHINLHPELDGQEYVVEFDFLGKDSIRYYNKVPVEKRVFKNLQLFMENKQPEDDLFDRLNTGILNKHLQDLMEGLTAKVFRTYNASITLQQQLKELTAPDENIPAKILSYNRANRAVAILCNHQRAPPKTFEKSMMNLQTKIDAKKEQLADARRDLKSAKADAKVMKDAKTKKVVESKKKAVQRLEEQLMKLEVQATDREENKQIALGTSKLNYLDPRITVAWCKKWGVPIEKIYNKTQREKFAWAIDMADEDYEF
Description: (§1) Human ToPI Inhibition in Plasmid DNA Relaxation Assays with Recombinant TopI (In Vitro) or MCF7 Cell Lysates (Ex Vivo)
(§2) Relaxation of supercoiled pBSSK(^+) DNA with recombinant human TopI (HTopI) at a molar ratio of 3:1 at 37° C. for 30 minutes was performed

[2] = Plasma stability assay; format: in vitro ADME; details: pH 7.4, 37° C., 1 μM
Description: The stock solution of 10 mM of test compound in DMSO was prepared and stored at 4° C. 25 μM stock of test compound was prepared in acetonitrile: water by diluting from 10 mM stock (i.e. 2.5 μL of 10 mM stock solution was added to 997.5 μL of acetonitrile: water (50:50). The frozen plasma was thawed at room temperature and centrifuged at 1400×RCF (relative centrifugal force) 4° C., for 15 minutes. Approximately 90% of the clear supernatant fraction was transferred to a separate tube and was used for the assay.
For 0 min samples, plasma was heat inactivated at 56° C. for 45 min. To 72 μL of heat inactivated plasma, 3 μL of 25 μM test compound was added. A 25 μL aliquot of the mixture was taken and crashed with 200 μL of acetonitrile containing internal standard and further processed along with other time points. For other time point samples, final working stock of 1 μM was prepared by diluting in plasma (i.e. 8 μL of 25 μM acetonitrile:water stock was added to 192 μL of plasma). 200 μL of plasma containing the test compound was incubated for 2 hrs at 37° C. in shaker water bath with gentle shaking. 25 μL aliquot of sample at 0, 15, 30, 60 and 120 min was precipitated immediately with 200 μL of acetonitrile containing internal standard and centrifuged at 4000×RCF, 4° C. for 20 minutes. 150 μL of supernatant was diluted with 150 μL of water and analyzed on LC-MS/MS.

[3] = Caco-2 permeability (21 day culture of Caco-2 cell monolayer); format: in vitro ADME; details: human; for efflux ratio at 120 min, 10 μM: Caco-2, pH 7.4; for recovery at 120 min, 10 μM: Caco-2, pH 7.4, Caco-2; for Papp A→B at 120 min, 10 μM / Papp B→A at 120 min, 10 μM: pH 7.4, Caco-2, 10 μM; for Papp A→B at 120 min, 10 μM: read-out: Papp Apical to Basal; for Papp B→A at 120 min, 10 μM: read-out: Papp Basal to Apical
Description: 5 mL of 100 mM sodium pyruvate, 5 mL of 10× non-essential amino acids, 5 mL of penstrep were added to 100 mL of heat inactivated foetal bovine serum to 385 mL of DMEM aseptically and mixed thoroughly. One vial of Hank's balanced salt (Sigma-H1387) was dissolved in 900 mL of milli Q water; adjusted the pH to 7.4 and made up the volume to 1000 mL with the same. The solution was filter sterilized and stored at 4° C. Stock solution of test compound (10 mM) was prepared in DMSO. 10 mM stock was diluted with HBSS Buffer to a final concentration of 10 μM.
250 μL of DMEM was added to the basal compartment of 96 well multi-screen Caco-2 plate and seeded 12000 cells/well (0.16×10^6 cells/ml) in all the apical wells required and one well with only media as blank without cells, placed the Caco-2 plate in CO2 incubator at 37° C. for proliferation of cells.
On the day of assay, medium was removed and washed twice with HBSS Buffer and incubated with HBSS buffer for 30 min in an incubator and wells with TEER values >230 ohm·cm^2 were selected for the incubation. 75 μL of test compound was added to apical wells and 250 μL of HBSS buffer with 2% BSA was added to basal wells. 25 μL of basal samples was collected at 120 min and processed as stated below.
250 μL of test compound was added to basal wells and 75 μL of HBSS buffer with 2% BSA was added to apical wells. 25 μL of apical samples was collected at 120 min and processed as stated below.
Single point calibration curve in HBSS buffer with 2% BSA was used. Donor samples were diluted 1:1 with HBSS containing 2% BSA and receiver samples were diluted with 1.1 HBSS buffer and precipitated with 200 μL of acetonitrile containing internal standard and vortexed for 5 min @ 1000 rpm, centrifuged at 4000 rpm for 10 min. Finally 100 μL of supernatant was diluted with 200 μL of water and submitted for LC-MS/MS analysis.

[4] = Lipophilicity assay (octanol/buffer Log D); details: n-octanol/sodium phosphate buffer, pH 7.4
Description: 1.56 g NaH2PO4.2H2O was dissolved in 0.5 L water in a 1 L beaker. After adjusting pH to 7.4 using NaOH solution, the volume was made up to 1 L. Equal volumes of sodium phosphate buffer (10 mM, pH 7.4) and n-octanol were added to a separation funnel and mixed thoroughly by shaking and inverting the funnel several times. The two layers were allowed to separate for 2 days and then dispensed in two separate glass bottles. 10 mM stock solution was prepared in 100% DMSO and stored at 4° C. 500 μL of organic phase (1-octanol) was added to each well of a 2 mL deep well plate, followed by 500 μL of buffer and 15 μL of test substance was added. The plate was vortexed for 1 hr on a plate shaker at 1200 rpm. After incubation, the samples were allowed to equilibrate for 20 min and then centrifuged at 4000 rpm for 30 min for complete phase separation and analysed by LC-UV.
Log D=Log(area of octanol/area of buffer)
Mean, SD and % CV for each set of triplicates were calculated

[5] = molecular target: T2, endogenous TopI from the whole cell extracts of human breast adenocarcinoma (MCF7) cell (Homo sapiens, UniProt P11387); assay: Plasmid DNA relaxation assay with MCF7 cell lysates (ex vivo); format: biochemical; details: MCF7 cell lysates as source of TopI
T2 construct: TopI enzyme in the extract is conserved in its native structure among a plethora of other cellular proteins; endogenous in cells; host or cells: MCF7 whole cell extract
T2 sequence (P11387 1-765): T1 sequence (P11387 1-765)
Description: as §1, §2
cellular extracts were utilized as a source of TopI (ex vivo) in plasmid DNA relaxation assays. TopI enzyme in the extract is conserved in its native structure among a plethora of other cellular proteins.

[6] = Solubility assay (pH 7.4 pION buffer, UV); format: physicochemical; details: pH 7.4 pION buffer, aqueous buffer, kinetic from dmso stock; pH 7.4 buffer, 18 hours incubation; read-out: Avg. Solubility (μg/mL) at pH 7.4
Description: 5 μL of 20 mM DMSO stock from the stock plate was added to the reaction deep well plate containing 495 μL of pH 7.4 pION buffer (including DMSO control) respectively and the samples were mixed and incubated for 18 hours. The plate was sealed well during the incubation process. The DMSO content in the sample was <1.0%. The concentration in deep well plates was 200 μM. 4 μL of 20 mM stock (including DMSO control) was added to 996 μL of acetonitrile to prepare the working stock plate. 75 μL of working stock was added to 75 μL of blank buffer and read on spectrophotometer as reference plate at 240 nm. At the end of the incubation period, 100 μL of sample from storage plate was vacuum filtered using a filter plate. This step wets the filters and the filtrate was discarded. Another 200 μL of the sample from deep well plate was vacuum filtered in to a new filter collection plate. 75 μL of the filtrate from the filter collection plate was transferred to a UV sample plate. 75 μL of acetonitrile was added to this UV plate. The solution was mixed and the spectrum was read using the UV spectrophotometer at 240 nm. Plates were read on spectramax using SoftMax Pro software version 5.3.

[7] = tested on: calf thymus (CT) DNA; assay: Ethidium bromide (EtBr) displacement assay; format: binding; details: 1 μM EtBr, 5 nM CT DNA, 0-200 μM compound

Structure (SMILES): COc1ccc(-c2ccc3ncc(-c4nnco4)c(NCCN4CCOCC4)c3c2)cc1OC [Compound 8, 6-(3,4-dimethoxyphenyl)-N-(2-morpholinoethyl)-3-(1,3,4-oxadiazol-2-yl)quinolin-4-amine]
melting point: 116 °C

Structure (SMILES): COc1ccc(-c2ccc3ncc(-c4nnco4)c(NCCN4CCOCC4)c3c2)cc1 [Compound 9, 6-(4-methoxyphenyl)-N-(2-morpholinoethyl)-3-(1,3,4-oxadiazol-2-yl)quinolin-4-amine]
inhibition at 10 µM ([1]; at 10 μM, read-out: In vitro inhibition at 10 μM): 45%
melting point: 156 °C

Structure (SMILES): COc1cc([C@@H]2c3cc4c(cc3[C@@H](O[C@@H]3O[C@@H]5CO[C@@H](C)O[C@H]5[C@H](O)[C@H]3O)[C@H]3COC(=O)[C@H]23)OCO4)cc(OC)c1O [etoposide]
displacement of bound EtBr (DNA intercalation) [7]: unable to displace EtBr

Structure (SMILES): COc1cc(NS(C)(=O)=O)ccc1Nc1c2ccccc2nc2ccccc12 [m-AMSA]
displacement of bound EtBr (DNA intercalation) [7]: capability to dislodge the bound fluorophore (EtBr) at 50 μM concentration

Second part, the molecule after the results:

melting point: 222 °C
Structure (SMILES): Cc1ccc(-c2ccc3ncc(-c4nnco4)c(NCCN4CCOCC4)c3c2)cc1[N+](=O)[O-] [Compound 10, 6-(4-methyl-3-nitrophenyl)-N-(2-morpholinoethyl)-3-(1,3,4-oxadiazol-2-yl)quinolin-4-amine]

melting point: 190 °C
Structure (SMILES): N#Cc1ccc(-c2ccc3ncc(-c4nnco4)c(NCCN4CCOCC4)c3c2)cc1 [Compound 11, 4-(4-(2-morpholinoethylamino)-3-(1,3,4-oxadiazol-2-yl)quinolin-6-yl)benzonitrile]

Mean % remaining at 2 hrs in human Plasma [2]: 14.62%
IC50 [1]: 0.397 µM
efflux ratio at 120 min, 10 μM [3]: 40
recovery at 120 min, 10 μM ([3]; read-out: A to B % Recovery): 84.8%
recovery at 120 min, 10 μM ([3]; read-out: B to A % Recovery): 74.2%
Papp A→B at 120 min, 10 μM [3]: 0.95 ×10⁻⁶ cm/s
Papp B→A at 120 min, 10 μM [3]: 38.3 ×10⁻⁶ cm/s
logD [4]: 3.54
IC50 [5]: 1.25 µM
solubility at 18 h [6]: 44 µg/mL (≈ 111 µM)
Structure (SMILES): c1cncc(-c2ccc3ncc(-c4nnco4)c(NCCCn4ccnc4)c3c2)c1 [Compound 30, N-(3-(1H-imidazol-1-yl)propyl)-3-(1,3,4-oxadiazol-2-yl)-6-(pyridin-3-yl)quinolin-4-amine]

Mean % remaining at 2 hrs in human Plasma [2]: 102.28%
IC50 [1]: 0.017 µM
efflux ratio at 120 min, 10 μM [3]: 4.01
recovery at 120 min, 10 μM ([3]; read-out: A to B % Recovery): 83.9%
recovery at 120 min, 10 μM ([3]; read-out: B to A % Recovery): 92%
Papp A→B at 120 min, 10 μM [3]: 7.89 ×10⁻⁶ cm/s
Papp B→A at 120 min, 10 μM [3]: 31.5 ×10⁻⁶ cm/s
logD [4]: 2.79
IC50 [5]: 0.625 µM
solubility at 18 h [6]: 27.9 µg/mL (≈ 65.4 µM)
Structure (SMILES): COc1ccc(-c2ccc3ncc(-c4nnco4)c(NCCCn4ccnc4)c3c2)cn1 [Compound 33, N-(3-(1H-imidazol-1-yl)propyl)-6-(6-methoxypyridin-3-yl)-3-(1,3,4-oxadiazol-2-yl)quinolin-4-amine]

IC50 [1]: 1.05 µM
IC50 [5]: 4.11 µM
melting point: 96 °C
Structure (SMILES): COc1cccc(-c2ccc3ncc(-c4nnco4)c(NCCCn4ccnc4)c3c2)c1 [Compound 82, N-(3-(1H-Imidazol-1-yl)propyl)-6-(3-methoxyphenyl)-3-(1,3,4-oxadiazol-2-yl)quinolin-4-amine]
